In brackets after ≈: the same amount, converted by molar mass.
Legend:
[1] = test system: colorectal carcinoma (HCT116); experiment: Growth inhibition of cancerous cells, HCT116; assay type: cell-based; conditions: Homo sapiens, HCT-116; HCT116, 100 μg/mL; read-out: growth inhibition percentage
Method: (§1) The compound of Formula I was tested for its antitumor activity against various cancer cell lines, in vitro, in non-small cell lung cancer (A549), colorectal carcinoma (HCT116), prostate cancer (PC3), pharynx squamous carcinoma (FaDu), triple-negative breast cancer (MDA-MB-468), cervical cancer (HeLa), and human oral epithelial normal cell line (OEC).

prostate cancer (PC3) = experiment: Growth inhibition of cancerous cells, PC3; assay type: cell-based; conditions: Homo sapiens; PC3, 100 μg/mL; read-out: growth inhibition percentage
Method: as §1

[2] = test system: pharynx squamous carcinoma (FaDu); experiment: Growth inhibition of cancerous cells, FaDu; assay type: cell-based; conditions: Homo sapiens
Method: as §1

[3] = test system: human non-small cell lung cancer (A549); experiment: Growth inhibition of cancerous cells, A549; assay type: cell-based; conditions: for IC50: A549
Method: as §1

cervical cancer (HeLa) = experiment: Growth inhibition of cancerous cells, HeLa; assay type: cell-based; conditions: Homo sapiens
Method: as §1

[4] = test system: triple-negative breast cancer (MDA-MB-468); experiment: Growth inhibition of cancerous cells, MDA-MB-468; assay type: cell-based; conditions: Homo sapiens; for IC50: MDA-MB-468
Method: as §1

[5] = test system: human oral epithelial normal cell line (OEC); conditions: 100 μg/mL
Method: as §1

[6] = 100 μg/mL, read-out: growth inhibition percentage

IC50 [2] | IC50 [3] | IC50 (cervical cancer (HeLa)) | IC50 [4] | SMILES | inhibition at 100 µg/mL [1] | inhibition at 100 µg/mL (prostate cancer (PC3)) | inhibition at 100 µg/mL [2, 6] | inhibition at 100 µg/mL ([3]; A549, 100 μg/mL, read-out: growth inhibition percentage) | inhibition at 100 µg/mL (cervical cancer (HeLa); [6]) | inhibition at 100 µg/mL ([4]; MDA-MB-468, 100 μg/mL, read-out: growth inhibition percentage) | growth inhibition percentage [5]
5.03 µg/mL | 6 µg/mL | 5.03 µg/mL | 5.5 µg/mL | O=C1S/C(=C\c2cc([N+](=O)[O-])ccc2O)C(=O)N1CCN1C(=O)c2ccccc2C1=O [Formula I, 3-(2-(1,3-dioxoisoindolin-2-yl)ethyl)-5-(2-hydroxy-5-nitrobenzylidene)thiazolidine-2,4-dione] | 85.7% | 83.8% | 89.1% | 78% | 70.8% | 90.8% | 48.89%
13.2 µg/mL (≈ 24.2 µM) | 7.63 µg/mL (≈ 14 µM) | 4.83 µg/mL (≈ 8.89 µM) | 7.76 µg/mL (≈ 14.3 µM) | COc1cccc2c1C(=O)c1c(O)c3c(c(O)c1C2=O)C[C@@](O)(C(=O)CO)C[C@@H]3O[C@H]1C[C@H](N)[C@H](O)[C@H](C)O1 [doxorubicin, reference compound] | – | – | – | – | – | – | –

From US12257239B1, “Cytotoxic treatment of cancer cells” (IMAM MOHAMMAD IBN SAUD ISLAMIC UNIVERSITY, priority 2024, dated 2025)
